Entries after “also recorded” stand apart in the source; their conditions may differ. Where a name gives a salt, the structure may show the parent alone.
Tests used:
[1] = system: blood platelets (collagen-induced aggregation); experiment: collagen-induced blood-platelet aggregation after oral treatment; type: in vivo, Wistar rats; conditions: Rattus norvegicus, read-out: Percent Inhibition, Collagen
Protocol: Blood was taken from the jugular vein of Wistar rats. […] 0.4 ml plasma is placed in a siliconized tube provided with a magnet bar which is also siliconized. The tube is introduced into an aggregometer coupled with an apparatus which records the optical density variations. […] Blood-platelet-aggregation produces then an increase of light transmission followed by a decrease subsequent to the deaggregation phase. The maximum optical density variation thus determined characterizes the intensity of the aggregation. (b) Determination of collagen-induced blood-platelet-aggregation The A.D.P. solution is substituted with a collagen solution (bovine tendon extract).

[2] = system: blood platelets; experiment: blood-platelet count before and after adrenalin infusion; type: in vivo, Mongrel dogs; conditions: for Blood-platelet count, change prior to and after adrenalin infusion: oral, twice a day, 4 days, controls 32.4% decrease; for number of blood-platelets, in words: adrenalin infusion, dogs
Protocol: (§1) This investigation concerned myocardial necrosis induced in animals under severe stress conditions which may be reproduced by infusion of adrenalin.
(§2) Mongrel dogs of either sex, weighing about 10 kg, were distributed into groups of 5 animals each: except for one group of untreated dogs (controls, Group 1), the other groups were orally administered the test material, twice a day, for 4 days, repsectively:
(§3) Eighteen hours after the last treatment the dogs were anesthetized with phenobarbital (25 mg/kg, i.v.); a catheter was placed in the femoral artery, the blood pressure was recorded via a STAHAM P 23 GD sensor and the ECG was recorded (D1 and D2) with a RACIA polygraph. The adrenalin was infused by the cephalic route at a dosage of 4 μg/kg/mn at a rate of 2 ml/mn for 4 hours.
Arterial blood samples were taken before and after the end of the infusion, to effect the blood-platelet counts.

[3] = system: Mongrel dogs; experiment: survival on the 7th day after adrenalin infusion; type: in vivo; conditions: for number of animals that survived on the 7th day after adrenalin infusion: oral, twice a day, 4 days, control 2/5; for survival time, in words: adrenalin infusion, dogs
Protocol: as §1, §2, §3
(§4) The animals were freed from the catheters and were allowed to wake up. The animals which survived 7 days later were sacrificed and autopsied; the hearts were cut out and examined macroscopically prior to taking samples for histological examination. Any macroscopic anomalies are rated according to the following code (Table II) which was established arbitrarily and which takes into account the extent of the damages (p.9).
The number of animals that survived on the 7th day after adrenalin infusion is reported below: […]

[4] = system: blood platelets (A.D.P. induced aggregation); experiment: A.D.P. induced blood-platelet aggregation after oral treatment; type: in vivo, Wistar rats; conditions: Rattus norvegicus, read-out: Percent Inhibition, A.D.P.
Protocol: Blood was taken from the jugular vein of Wistar rats. […] (a) Determination of A.D.P. induced blood-platelet aggregation 0.4 ml plasma is placed in a siliconized tube provided with a magnet bar which is also siliconized. The tube is introduced into an aggregometer coupled with an apparatus which records the optical density variations. When light transmission has reached a stable value, 0.5 ml of a solution containing 10μ M A.D.P. (adenosine-di-phosphate) is added to the tube. Blood-platelet-aggregation produces then an increase of light transmission followed by a decrease subsequent to the deaggregation phase. The maximum optical density variation thus determined characterizes the intensity of the aggregation.

[5] = system: myocardial necrosis; experiment: adrenalin-induced myocardial necrosis, macroscopic lesions; type: in vivo, Mongrel dogs; conditions: for Macroscopic Lesions, necrosis score: oral, twice a day, 4 days, control 18.0; for necrosis / macroscopic lesions, in words: adrenalin infusion, dogs, vs controls
Protocol: as §1, §3, §4

[6] = system: platelet aggregation (collagen); conditions: Packham et al 1967; cited from earlier work
[7] = acute toxicity, LD50, rabbits; conditions: rabbit, in vivo, iv, Miller & Tainter method, read-out: LD50 /24 hrs/kg body weight
Description: The tests carried out concerned:

[8] = acute toxicity, LD50, rats; conditions: rat, in vivo
[9] = system: platelet aggregation (antigen-antibody complexes); conditions: Packham et al 1967; cited from earlier work
[10] = acute toxicity, LD50, mice; conditions: mouse, in vivo
[11] = system: platelet; conditions: in man; Goodman and Gilman 1975; cited from earlier work
[12] = Group 2: 50 mg/kg ticlopidine hydrochloride
[13] = Group 3: 100 mg/kg ticlopidine hydrochloride
[14] = Group 4: 10 mg/kg sulfinpyrazone, oral, 3 hours after treatment, vs control
[15] = Group 5: 20 mg/kg sulfinpyrazone, oral, 3 hours after treatment, vs control
[16] = Group 4: 20 mg/kg sulfinpyrazone
[17] = Group 5: 40 mg/kg sulfinpyrazone

SMILES: Clc1ccccc1CN1CCc2sccc2C1 [ticlopidine hydrochloride, 5-(2-chloro-benzyl)-4,5,6,7-tetrahydro-thieno[3,2-c]pyridine]
- inhibition at 25 mg/kg ([1]; po, 3 h): 48.6%
- inhibition at 50 mg/kg ([1]; po, 3 h): 58.3%
- Blood-platelet count, change prior to and after adrenalin infusion [2, 12]: +14%
- Blood-platelet count, change prior to and after adrenalin infusion [2, 13]: +13.2%
- number of blood-platelets, in words [2]: increases the number of blood-platelets
- number of animals that survived on the 7th day after adrenalin infusion [3, 12]: 3/5
- number of animals that survived on the 7th day after adrenalin infusion [3, 13]: 4/5
- survival time, in words [3]: improves the survival time
- inhibition at 25 mg/kg ([4]; po, 3 h): 28.5%
- inhibition at 50 mg/kg ([4]; po, 3 h): 40.6%
- Macroscopic Lesions, necrosis score [5, 12]: 6.8
- Macroscopic Lesions, necrosis score [5, 13]: 4.8
- necrosis / macroscopic lesions, in words [5]: significant protection against myocardia necrosis

SMILES: O=C1C(CC[S+]([O-])c2ccccc2)C(=O)N(c2ccccc2)N1c1ccccc1 (stereo not shown) [sulfinpyrazone, 1,2-diphenyl-(2'-phenylsulfinyl-ethyl)pyrazolidine-3,5-dione]
- platelet aggregation in response to collagen [6]: blocks platelet aggregation
- LD50 at 24 h [7]: 195 mg/kg
- inhibition at 10 mg/kg [1, 14]: 12.7%
- inhibition at 20 mg/kg [1, 15]: 20.5%
- Blood-platelet count, change prior to and after adrenalin infusion [2, 16]: -12%
- Blood-platelet count, change prior to and after adrenalin infusion [2, 17]: -7%
- number of blood-platelets, in words [2]: no effect
- LD50 at 24 h ([8]; iv): 154 mg/kg
- LD50 at 24 h ([8]; po): 375 mg/kg
- platelet aggregation in response to antigen-antibody complexes [9]: blocks platelet aggregation
- LD50 at 24 h ([10]; iv): 240 mg/kg
- LD50 at 24 h ([10]; po): 298 mg/kg
- platelet survival [11]: prolongs platelet survival
- number of animals that survived on the 7th day after adrenalin infusion [3, 16]: 2/5
- number of animals that survived on the 7th day after adrenalin infusion [3, 17]: 2/5
- survival time, in words [3]: no effect
- inhibition at 10 mg/kg [4, 14]: 8.7%
- inhibition at 20 mg/kg [4, 15]: 14.1%
- Macroscopic Lesions, necrosis score [5, 16]: 18.2
- Macroscopic Lesions, necrosis score [5, 17]: 17.4
- necrosis / macroscopic lesions, in words [5]: substantially identical with those of the controls; also recorded: no effect

Reference: US4537894A, “Methods of using compositions having antithrombotic and anti-blood-platelet-aggregating activity” (priority 1978, dated 1985)
